Assay results taken from patent publication US20190046662A1, “Compositions and Methods for Treating Neuropathic Pain” (Rutgers, The State University of New Jersey, priority 2016, published 2019).

Key:
Assay type in all cases: in vivo, rat
[1] = molecular target: T1, hM4Di receptors expressed in TG (Homo sapiens, UniProt P08173, A203G/Y113C); assay: Orofacial formalin test after AAV5-hSyn-hM4Di-mCherry injection into TG (Example 1); conditions: rats with AAV5-hSyn-hM4Di-mCherry in TG, vs vehicle
T1 construct: expressed in transfected cells; host or cells: rat trigeminal ganglion neurons in vivo, transduced with AAV5 (synapsin promoter)
T1 sequence (P08173 1-479 Y113C/A203G): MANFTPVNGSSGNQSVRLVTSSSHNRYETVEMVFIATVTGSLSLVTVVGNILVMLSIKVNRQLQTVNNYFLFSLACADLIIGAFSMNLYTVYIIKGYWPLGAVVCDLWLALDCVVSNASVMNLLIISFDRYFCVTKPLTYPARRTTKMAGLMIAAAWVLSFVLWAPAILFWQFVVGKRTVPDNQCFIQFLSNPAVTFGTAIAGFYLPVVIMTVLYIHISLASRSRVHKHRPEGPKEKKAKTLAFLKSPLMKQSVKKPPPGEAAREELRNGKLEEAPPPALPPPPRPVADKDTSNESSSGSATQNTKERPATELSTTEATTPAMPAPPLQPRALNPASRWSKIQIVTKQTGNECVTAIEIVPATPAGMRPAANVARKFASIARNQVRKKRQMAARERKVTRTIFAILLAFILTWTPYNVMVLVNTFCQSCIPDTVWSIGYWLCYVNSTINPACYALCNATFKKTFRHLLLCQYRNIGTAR
From the text: The orofacial formalin model is well established for inducing behavioral and molecular changes indicating pain. The formalin model mimics the clinical situation of an acute insult that wanes rapidly. Models of trigeminal pain and their behavioral and molecular assessments have been described (Benoliel et al. (2001) Pain 91:111-21; Benoliel et al. (2001) Neurosci. Lett., 297:151-4; Benoliel et al. (2002) Pain 97:203-12; Benoliel et al. (2002) Pain 99:567-78). There is increased and intense directed facial grooming following injection of formalin into the rat vibrissal pad, and the duration of grooming is thought to represent the level of pain (Clavelou et al. (1995) Pain 62:295-301; Raboisson et al. (1995) J. Neurophysiol., 73:496-505; Sukriti et al. (2004) Methods Find Exp. Clin. Pharmacol., 26:253-6). At day 37 after virus injection (to allow for viral transfection and DREADD expression), acute pain was induced by subcutaneous injection of 50 μL of 1.5% formalin into the rat's vibrissal pad. Formalin activates Aδ and C nociceptors as well as trigeminal and spinal nociceptive neurons. Formalin-induced unilateral pain is biphasic, with an early short-lasting (3-5 minutes) phase, followed after a quiescent period by a second, prolonged (20-40 minutes) tonic phase. The orofacial formalin test is a valid and reliable way of producing and quantifying nociception in the trigeminal region of the rat (Raboisson et al. (2004) Neurosci. Biobehay. Rev., 28:219-26; Le Bars et al. (2001) Pharmacol. Rev., 53:597-652; Vos et al. (1998) Pain 76:173-8). The concentration of formalin used allows for the detection of both hypo- and hyperalgesic effects. The time that the animal spends rubbing the injected area with fore- or hind paws was recorded. Thirty minutes prior to injecting formalin the animals received CNO ([…], ip) or vehicle treatment.

[2] = molecular target: T2, hSyn-hM4D (Homo sapiens, UniProt P08173, A203G/Y113C); assay: Pain-like behavior after infraorbital nerve chronic constriction injury (IoN-CCI), synapsin-DREADD (hSyn-hM4D); conditions: IoN-CCI males
T2 construct: expressed in transfected cells; host or cells: rat trigeminal ganglion neurons in vivo, viral vector with synapsin promoter
T2 sequence (P08173 1-479 Y113C/A203G): T1 sequence (P08173 1-479 Y113C/A203G)
From the text: For the infraorbital nerve chronic constriction injury (ION-CCI), ˜0.5 cm of the infraorbital nerve will be freed and two chromic gut ligatures will be loosely tied around it (2 mm apart) prior to closure of the incision (all performed under ketamine/xylazine anesthesia). As a control, other rats will undergo sham surgery where the infraorbital nerve is exposed but left untouched. This model results in persistent pain beginning at about 2 weeks postoperatively and lasting at least 3 weeks (Benoliel et al. (2001) Neurosci. Lett., 297:151-4; Benoliel et al. (2002) Pain 97:203-12), allowing for the assessment of the effect of vehicle vs CNO/DREADD-mediated inhibition of TG neurons on this behavior at multiple time points. Fos expression and cAMP levels may also be measured in the TG to correlate these molecular endpoints to behavioral effects of DREADD activation. The rats will also undergo repeated stimulation with a 2-g von Frey hair applied to the hairy skin of the vibrissae on the operated side to induce Fos (Vos et al. (1995) J. Comp. Neurol., 357:362-75). Activation of hM4Di receptors will reduce Fos in the TG following von Frey stimulation.
The effects of synapsin-DREADD activation with CNO on pain-like behavior following chronic constriction injury (CCI) of the infraorbital nerve (ION) were also studied (FIG. 6). The mean von Frey detection thresholds (±SEM) (left) and the mean response scores (±SEM) (right) to the pin-prick stimulation applied to the vibrissal pads were plotted. All animals (males, n=4 per group) were exposed to the infraorbital nerve chronic constriction injury (IoN-CCI) unilaterally. Following IoN-CCI, all animals had synapsin-DREADD (hSyn-hM4D) injected into the ipsilateral trigeminal ganglion. At post-operative day 26 (D26) CNO or vehicle was delivered intraperitoneally 30 minutes prior to behavioral testing.

[3] = molecular target: T3, hTac1-hM4D (Homo sapiens, UniProt P08173, A203G/Y113C); assay: Pin-prick response score, Tac1-DREADD (hTac1-hM4D) in trigeminal ganglion, non-CCI animals; conditions: females, n=7 per group, CNO i.p. vs vehicle
T3 construct: expressed in transfected cells; host or cells: rat trigeminal ganglion neurons in vivo, viral vector with Tac1 promoter
T3 sequence (P08173 1-479 Y113C/A203G): T1 sequence (P08173 1-479 Y113C/A203G)
From the text: The effects of Tac1-DREADD activation with CNO on pin-prick response score were also studied (FIG. 8). All animals (female, n=7 per group) had Tachykinin 1-DREADD (hTac1-hM4D) injected into the trigeminal ganglion unilaterally. Average pin-prick response scores (±SEM) were plotted following intraperitoneal (i.p.) administration of CNO or vehicle.

[4] = CNO ip 30 min prior to formalin

C[N+]1([O-])CCN(C2=Nc3cc(Cl)ccc3Nc3ccccc32)CC1 [CNO, clozapine N-oxide]
total time spent grooming after formalin ([1]; CNO (10 mg/ml, ip) 30 min prior to 50 μL 1.5% formalin s.c. vibrissal pad, day 37 after virus, n=3/group, p<0.04): significantly reduced | grooming in early phase (<9 minutes) after formalin [1, 4]: trends to reduce | grooming in late phase (9-45 minutes) after formalin [1, 4]: trends to reduce | pin-prick response score, contralateral side ([2]; CNO i.p. at D26): No significant effects | von Frey detection threshold, contralateral side ([2]; CNO i.p. at D26): No significant effects | von Frey detection threshold, ipsilateral side, compared to post-operative days 21 and 27 ([2]; CNO i.p. at D26, D21 F=20.4, P=0.004, D27 F=7.8, P=0.03): significantly increased | pin-prick response score, ipsilateral side, compared to post-operative days 21 and 27 ([2]; CNO i.p. at D26, D21 F=32, P=0.001, D27 F=21, P=0.004): significantly decreased | von Frey detection threshold, ipsilateral side, compared to vehicle treated animals ([2]; n=4 per group, CNO i.p. at D26, 30 min prior to testing, F=7.8, P=0.03): significantly increased | pin-prick response score, ipsilateral vibrissal pad, compared to vehicle treated animals ([2]; n=4 per group, CNO i.p. at D26, F=7.7, P=0.03): significantly decreased | pin-prick response score, contralateral vibrissal pad ([3]; F=0.01, P=0.9): no significant effect | pin-prick response score, ipsilateral vibrissal pad ([3]; F=0.1, P=0.8): no significant effect
